The assay addresses T1, human liver GK (Homo sapiens, UniProt P35557).
T1 construct: GST (glutathione S-transferase) (N); made in house; host or cells: E. coli
T1 sequence (P35557 1-466 isoform P35557-2): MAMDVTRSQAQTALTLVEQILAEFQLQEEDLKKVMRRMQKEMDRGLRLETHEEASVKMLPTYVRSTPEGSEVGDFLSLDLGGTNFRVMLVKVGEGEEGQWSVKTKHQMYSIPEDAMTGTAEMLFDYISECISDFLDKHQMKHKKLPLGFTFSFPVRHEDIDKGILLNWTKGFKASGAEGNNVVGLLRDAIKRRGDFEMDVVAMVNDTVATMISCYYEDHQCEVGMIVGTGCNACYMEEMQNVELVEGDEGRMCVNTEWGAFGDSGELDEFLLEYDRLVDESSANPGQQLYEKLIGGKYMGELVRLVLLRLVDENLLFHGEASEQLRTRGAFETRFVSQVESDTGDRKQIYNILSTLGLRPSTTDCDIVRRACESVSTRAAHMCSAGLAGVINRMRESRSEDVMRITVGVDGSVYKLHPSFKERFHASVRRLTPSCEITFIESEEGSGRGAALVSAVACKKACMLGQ
The experiment in a line: GK activation test. The class given is biochemical. The conditions noted are these: test compound concentration needed to activate 50% of maximum activation ability; 4 mM 14C-labeled glucose, 2 mM ATP, room temperature, 20 minutes. The procedure, abridged: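 GST-tagged human liver GK from E. coli (0.24 μg/well) with 4 mM 14C-glucose, 2 mM ATP in Hepes-KOH pH 7.1, KCl, MgCl2, DTT, 1% DMSO, 20 min room temperature. Labeled glucose 6-phosphate captured on anion resin, eluted and counted. EC50 = concentration giving half of maximal activation.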

We go through 31 compounds from US8822503B2, “2-pyridone compounds” (Taisho Pharmaceutical Co., Ltd, priority 2009, dated 2014).

By EC50 is commonly meant the concentration needed to bring the measured effect to its halfway point. Lower therefore signals a more potent agent. `Cc1ccc(C(CC2CCC(=O)CC2)c2ccc(S(C)(=O)=O)cc2)[nH]c1=O` (stereo not shown) [Example 2-21, 3-Methyl-6-{1-[4-(methylsulfonyl)phenyl]-2-(4-oxocyclohexyl)ethyl}pyridin-2(1H)-one] had an EC50 of 3000 to 10000 nM. Compound `CSc1ccc(C(C[C@H]2CCC(=O)C2)c2ccc(C)c(=O)[nH]2)cc1` (stereo partly drawn) [Example 2-22, 3-Methyl-6-{1-[4-(methylsulfanyl)phenyl]-2-[(1R)-3-oxocyclopentyl]ethyl}pyridin-2(1H)-one] yielded an EC50 of 500 to 3000 nM.

`Cc1ccc(C(C[C@H]2CCC(=O)C2)c2ccc(S(C)(=O)=O)cc2)[nH]c1=O` (stereo partly drawn) [Example 2-23, 3-Methyl-6-{1-[4-(methylsulfonyl)phenyl]-2-[(1R)-3-oxocyclopentyl]ethyl}pyridin-2(1H)-one]: the 50% effective concentration (EC50) fell in the range of 3000 to 10000 nM. For `CN1CCN(S(=O)(=O)c2ccc(C(CC3CCCC3)c3ccc(Cl)c(=O)[nH]3)cc2)CC1` (stereo not shown) [Example 2-24, 3-Chloro-6-(2-cyclopentyl-1-{4-[(4-methylpiperazin-1-yl)sulfonyl]phenyl}ethyl)pyridin-2(1H)-one], the EC50 is 3000 to 10000 nM.

The compound `O=c1[nH]c(C(CC2CCCC2)c2ccc(S(=O)(=O)C3CC3)cc2)ccc1Cl` (stereo not shown) [Example 2-25, 3-Chloro-6-{2-cyclopentyl-1-[4-(cyclopropylsulfonyl)phenyl]ethyl}pyridin-2(1H)-one] yielded an EC50 of 500 to 3000 nM. On to `CSc1ccc(/C(=C\[C@H]2CCC(=O)N2)c2ccc(C3CC3)c(=O)[nH]2)cc1` [Example 4-1, 3-Cyclopropyl-6-{(E)-1-[4-(methylsulfanyl)phenyl]-2-[(2R)-5-oxopyrrolidin-2-yl]ethenyl}pyridin-2(1H)-one], for which the 50% effective concentration (EC50) lay in the range of 10 to 500 nM.

On to `CCOc1ccc(/C(=C\[C@H]2CCC(=O)N2)c2ccc(Cl)c(=O)[nH]2)cc1Cl` [Example 4-2, 3-Chloro-6-{(E)-1-(3-chloro-4-ethoxyphenyl)-2-[(2R)-5-oxopyrrolidin-2-yl]ethenyl}pyridin-2(1H)-one], for which the EC50 was in the range of 500 to 3000 nM.

Compound `CCOc1ccc(C(C[C@H]2CCC(=O)N2)c2ccc(Cl)c(=O)[nH]2)cc1Cl` (stereo partly drawn) [Example 4-3, 3-Chloro-6-{1-(3-chloro-4-ethoxyphenyl)-2-[(2R)-5-oxopyrrolidin-2-yl]ethyl}pyridin-2(1H)-one] showed a concentration for a half-maximal effect (EC50) of 500 to 3000 nM. On to `Cc1ccc(/C(=C\[C@H]2CCC(=O)N2)c2ccc(C3CC3)c(=O)[nH]2)cc1` [Example 4-4, 3-Cyclopropyl-6-{(E)-1-(4-methylphenyl)-2-[(2R)-5-oxopyrrolidin-2-yl]ethenyl}pyridin-2(1H)-one], for which the 50% effective concentration (EC50) fell in the range of 10 to 500 nM. `CCc1ccc(/C(=C\[C@H]2CCC(=O)N2)c2ccc(C3CC3)c(=O)[nH]2)cc1` [Example 4-5, 3-Cyclopropyl-6-{(E)-1-(4-ethylphenyl)-2-[(2R)-5-oxopyrrolidin-2-yl]ethenyl}pyridin-2(1H)-one] returned an EC50 of 10 to 500 nM.

Regarding `CCOc1ccc(/C(=C\[C@H]2CCC(=O)N2)c2ccc(C3CC3)c(=O)[nH]2)cc1` [Example 4-6, 3-Cyclopropyl-6-{(E)-1-(4-ethoxyphenyl)-2-[(2R)-5-oxopyrrolidin-2-yl]ethenyl}pyridin-2(1H)-one], the EC50 is 10 to 500 nM.

`CCOc1cccc(/C(=C\[C@H]2CCC(=O)N2)c2ccc(C3CC3)c(=O)[nH]2)c1` [Example 4-7, 3-Cyclopropyl-6-{(E)-1-(3-ethoxyphenyl)-2-[(2R)-5-oxopyrrolidin-2-yl]ethenyl}pyridin-2(1H)-one] yielded a half-maximal effective concentration (EC50) of 500 to 3000 nM. On to `O=C1CC[C@H](/C=C(\c2cccc(OCCCO)c2)c2ccc(C3CC3)c(=O)[nH]2)N1` [Example 4-8, 3-Cyclopropyl-6-{(E)-1-[3-(3-hydroxypropoxy)phenyl]-2-[(2R)-5-oxopyrrolidin-2-yl]ethenyl}pyridin-2(1H)-one], for which the concentration giving a half-maximal response (EC50) was in the range of 500 to 3000 nM.

For `O=C1CC[C@H](/C=C(\c2cccc(OCCCCO)c2)c2ccc(C3CC3)c(=O)[nH]2)N1` [Example 4-9, 3-Cyclopropyl-6-{(E)-1-[3-(4-hydroxybutoxy)phenyl]-2-[(2R)-5-oxopyrrolidin-2-yl]ethenyl}pyridin-2(1H)-one], the half-maximal effective concentration (EC50) was 500 to 3000 nM. For `CCOc1ccc(/C(=C\[C@H]2CCC(=O)N2)c2ccc(C3CC3)c(=O)[nH]2)cc1Cl` [Example 4-10, 6-{(E)-1-(3-Chloro-4-ethoxyphenyl)-2-[(2R)-5-oxopyrrolidin-2-yl]ethenyl}-3-cyclopropylpyridin-2(1H)-one], the 50% effective concentration (EC50) lay in the range of 10 to 500 nM. `O=C1CC[C@H](/C=C(\c2ccc(OCCCCO)c(Cl)c2)c2ccc(C3CC3)c(=O)[nH]2)N1` [Example 4-11, 6-{(E)-1-[3-Chloro-4-(4-hydroxybutoxy)phenyl]-2-[(2R)-5-oxopyrrolidin-2-yl]ethenyl}-3-cyclopropylpyridin-2(1H)-one] had an EC50 of 10 to 500 nM.

The compound `Cc1cc(/C(=C\[C@H]2CCC(=O)N2)c2ccc(C3CC3)c(=O)[nH]2)ccc1SC1CC1` [Example 4-12, 3-Cyclopropyl-6-{(E)-1-[4-(cyclopropylsulfanyl)-3-methylphenyl]-2-[(2R)-5-oxopyrrolidin-2-yl]ethenyl}pyridin-2(1H)-one] registered a 50% effective concentration (EC50) of 10 to 500 nM. On to `O=C1CC[C@H](/C=C(\c2ccc(SC3CC3)c(Cl)c2)c2ccc(Cl)c(=O)[nH]2)N1` [Example 4-13, 3-Chloro-6-{(E)-1-[3-chloro-4-(cyclopropylsulfanyl)phenyl]-2-[(2R)-5-oxopyrrolidin-2-yl]ethenyl}pyridin-2(1H)-one], for which the EC50 was 10 to 500 nM.

Regarding `CCc1ccc(/C(=C\[C@H]2CCC(=O)N2)c2ccc(Cl)c(=O)[nH]2)cc1` [Example 4-14, 3-Chloro-6-{(E)-1-(4-ethylphenyl)-2-[(2R)-5-oxopyrrolidin-2-yl]ethenyl}pyridin-2(1H)-one], the EC50 is 500 to 3000 nM. In the case of `CC(C)c1ccc(/C(=C\[C@H]2CCC(=O)N2)c2ccc(Cl)c(=O)[nH]2)cc1` [Example 4-15, 3-Chloro-6-{(E)-2-[(2R)-5-oxopyrrolidin-2-yl]-1-[4-(propan-2-yl)phenyl]ethenyl}pyridin-2(1H)-one] it was 10 to 500 nM.

With `CCCc1ccc(/C(=C\[C@H]2CCC(=O)N2)c2ccc(Cl)c(=O)[nH]2)cc1` [Example 4-16, 3-Chloro-6-[(E)-2-[(2R)-5-oxopyrrolidin-2-yl]-1-(4-propylphenyl)ethenyl]pyridin-2(1H)-one], the EC50 lay within 500 to 3000 nM. For `CCCCc1ccc(/C(=C\[C@H]2CCC(=O)N2)c2ccc(Cl)c(=O)[nH]2)cc1` [Example 4-17, 6-{(E)-1-(4-Butylphenyl)-2-[(2R)-5-oxopyrrolidin-2-yl]ethenyl}-3-chloropyridin-2(1H)-one], the EC50 was in the range of 10 to 500 nM. Take `CC(C)(C)c1ccc(/C(=C\[C@H]2CCC(=O)N2)c2ccc(Cl)c(=O)[nH]2)cc1` [Example 4-18, 6-{(E)-1-(4-tert-Butylphenyl)-2-[(2R)-5-oxopyrrolidin-2-yl]ethenyl}-3-chloropyridin-2(1H)-one]: the EC50 lay in the range of 10 to 500 nM. With `O=C1CC[C@H](/C=C(\c2ccc(C(F)(F)F)cc2)c2ccc(Cl)c(=O)[nH]2)N1` [Example 4-19, 3-Chloro-6-{(E)-2-[(2R)-5-oxopyrrolidin-2-yl]-1-[4-(trifluoromethyl)phenyl]ethenyl}pyridin-2(1H)-one], the EC50 lay within 500 to 3000 nM. In the case of `CC(C)CCOc1ccc(/C(=C\[C@H]2CCC(=O)N2)c2ccc(Cl)c(=O)[nH]2)cc1Cl` [Example 4-20, 3-Chloro-6-{(E)-1-[3-chloro-4-(3-methylbutoxy)phenyl]-2-[(2R)-5-oxopyrrolidin-2-yl]ethenyl}pyridin-2(1H)-one] it was 10 to 500 nM; in that of `CC(C)CCCOc1ccc(/C(=C\[C@H]2CCC(=O)N2)c2ccc(Cl)c(=O)[nH]2)cc1Cl` [Example 4-21, 3-Chloro-6-{(E)-1-{3-chloro-4-[(4-methylpentyl)oxy]phenyl}-2-[(2R)-5-oxopyrrolidin-2-yl]ethenyl}pyridin-2(1H)-one], 10 to 500 nM. The compound `CC(C)COc1ccc(/C(=C\[C@H]2CCC(=O)N2)c2ccc(Cl)c(=O)[nH]2)cc1Cl` [Example 4-22, 3-Chloro-6-{(E)-1-[3-chloro-4-(2-methylpropoxy)phenyl]-2-[(2R)-5-oxopyrrolidin-2-yl]ethenyl}pyridin-2(1H)-one] yielded a concentration giving a half-maximal response (EC50) of 10 to 500 nM. `Cc1ccc(/C(=C\[C@H]2CCC(=O)N2)c2ccc(Cl)c(=O)[nH]2)cc1C` [Example 4-23, 3-Chloro-6-{(E)-1-(3,4-dimethylphenyl)-2-[(2R)-5-oxopyrrolidin-2-yl]ethenyl}pyridin-2(1H)-one] displayed an EC50 of 500 to 3000 nM. `Cc1ccc(/C(=C\[C@H]2CCC(=O)N2)c2ccc(Cl)c(=O)[nH]2)cc1Cl` [Example 4-24, 3-Chloro-6-{(E)-1-(3-chloro-4-methylphenyl)-2-[(2R)-5-oxopyrrolidin-2-yl]ethenyl}pyridin-2(1H)-one] gave an EC50 of 500 to 3000 nM.

On to `Cc1ccc(/C(=C\[C@H]2CCC(=O)N2)c2ccc(Cl)c(=O)[nH]2)cc1C(F)(F)F` [Example 4-25, 3-Chloro-6-{(E)-1-[4-methyl-3-(trifluoromethyl)phenyl]-2-[(2R)-5-oxopyrrolidin-2-yl]ethenyl}pyridin-2(1H)-one], for which the EC50 lay in the range of 500 to 3000 nM. Turning to `O=C1CC[C@H](/C=C(\c2ccc(CCCCO)cc2)c2ccc(Cl)c(=O)[nH]2)N1` [Example 4-26, 3-Chloro-6-{(E)-1-[4-(4-hydroxybutyl)phenyl]-2-[(2R)-5-oxopyrrolidin-2-yl]ethenyl}pyridin-2(1H)-one], the EC50 lay in the range of 500 to 3000 nM.
